In the experiment the target is Carbonic anhydrase 6 (Homo sapiens, UniProt P23280). As to the kind of experiment: Enzyme Inhbition Assay. The note with it: pH 7.5; 20 °C.

Each structure is given as a SMILES string. Several values for one entry are separate records, joined by “and”; a condition that tells them apart may be missing. Equal entries are not always repeated.

Sequence of Carbonic anhydrase 6 (P23280 whole entry): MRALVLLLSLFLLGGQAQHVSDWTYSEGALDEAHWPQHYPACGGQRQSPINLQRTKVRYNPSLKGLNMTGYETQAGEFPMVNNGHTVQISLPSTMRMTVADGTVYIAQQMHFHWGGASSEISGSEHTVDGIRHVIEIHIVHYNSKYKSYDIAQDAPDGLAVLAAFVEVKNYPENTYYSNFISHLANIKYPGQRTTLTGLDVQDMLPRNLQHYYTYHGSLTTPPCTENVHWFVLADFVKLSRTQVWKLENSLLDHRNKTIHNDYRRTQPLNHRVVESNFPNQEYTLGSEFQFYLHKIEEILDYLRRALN
Source text: Inhibition assay using carbonic anhydrases with an SX.18MV-R, a stopped-flow instrument from Applied Photophysics was used for assaying the CA catalyzed CO2 hydration activity.

For the compound `NS(=O)(=O)c1ccc(NC2OCC(O)C(O)C2O)cc1` (configuration not stated), the Ki is 3.5 nM and 5.1 nM and 0.56 nM.
With `CC1OC(Nc2ccc(S(N)(=O)=O)cc2)C(O)C(O)C1O` (configuration not stated), the Ki is 3.4 nM and 13 nM.

The values above are taken from BindingDB's records for doi:10.1111/j.1747-0285.2009.00902.x (Institut Des BiomolÉCules Max Mousseron (Ibmm), 2009).
